Assay results taken from patent publication US5188642A, “Glyphosate-resistant plants” (priority 1990, dated 1993).

Tested on: infected potato stem explants
Assay: Kanamycin selection of potato stem explants
Assay type: cell-based, potato (Russet Burbank)
Settings: Kanamycin at 300 mg/l
Description: Potato--Shoot tips of virus-free Russet Burbank are subcultured on media containing MS major and minor salts, 0.17 g/l sodium dihygrogen phosphate, 0.4 mg/l thiamine hydrochloride, 0.1 g/l inositol, 3% sucrose, 1.5 g/l Gelrite™ (Kelco, Co ) at pH 5.6. Cultures are grown at 24C in a 16 hour photoperiod. Shoots are used approximately 3-4 weeks after subculturing. Stem internodes are cut into approximately 8 mm lengths and split lengthwise, then the cut surface is smeared with Agrobacterium carrying binary vector pMON542 and helper plasmid pTiT37-SE which had been streaked on an LB agar plate and grown for a few days. Stem sections are placed cut side down on the surface of the medium containing MS salts, MS organics, 3% sucrose, 2.25 mg/l BA, […] NAA, 10 mg/l GA, 1.5 g/l Gelrite at pH 5.6. After 4 days, the stem explants are transferred to the same medium but with carbenicillin at 500 mg/l and kanamycin as the selective agent at 0 or 300 mg/l. Two weeks after inoculation, the explants are moved onto medium of the same composition but without NAA.

In the case of `NC[C@H]1O[C@H](O[C@H]2[C@H](O)[C@@H](O[C@H]3O[C@H](CO)[C@@H](O)[C@H](N)[C@H]3O)[C@H](N)C[C@@H]2N)[C@H](O)[C@@H](O)[C@@H]1O` [Kanamycin, kanamycin], the “swelling and callusing of explants” value is reported as “sufficient to prevent swelling and callusing of the infected explants without killing the tissue”.
